Tested on: human umbilical vein endothelial cells (HUVEC)
Test: HUVEC proliferation assay
Format: cell-based
Details: Homo sapiens, HUVEC, Table I screening results; 150 nM; crude combinatorial amide library
Description: HUVEC Proliferation Assay
This assay determines the ability of a test compound to inhibit the growth factor-stimulated proliferation of human umbilical vein endothelial cells (“HUVEC”). HUVEC cells (passage 3-4, Clonetics, Corp.) were thawed into EGM2 culture medium (Clonetics Corp) in T75 flasks. Fresh EGM2 medium was added to the flasks 24 hours later. Four or five days later, cells were exposed to another culture medium (F12K medium supplemented with 10% fetal bovine serum (FBS), 60 μg/ml endothelial cell growth supplement (ECGS), and 0.1 mg/ml heparin). Exponentially-growing HUVEC cells were used in experiments thereafter. Ten to twelve thousand HUVEC cells were plated in 96-well dishes in 100 μl of rich, culture medium (described above). The cells were allowed to attach for 24 hours in this medium. The medium was then removed by aspiration and 105 μl of starvation media (F12K+1% FBS) was added to each well. After 24 hours, 15 μl of test agent dissolved in 1% DMSO in starvation medium or this vehicle alone was added into each treatment well; the final DMSO concentration was 0.1%. One hour later, 30 μl of VEGF (30 ng/ml) in starvation media was added to all wells except those containing untreated controls; the final VEGF concentration was 6 ng/ml. Cellular proliferation was quantified 72 hours later by MTT dye reduction, at which time cells were exposed for 4 hours MTT (Promega Corp.). Dye reduction was stopped by addition of a stop solution (Promega Corp.) and absorbance at 595 λ was determined on a 96-well spectrophotometer plate reader.
IC50 values were calculated by curve-fitting the response of A^595 to various concentrations of the test agent; typically, seven concentrations separated by 0.5 log were employed, with triplicate wells at each concentration. For screening compound library plates, one or two concentrations (one well per concentration) were employed, and the % inhibition was calculated by the following formula:
% inhibition=(control−test) divided by (control−starvation) […]
control=A^595 when VEGF is present without test agent test=A^595 when VEGF is present with test agent starvation=A^595 when VEGF and test agent are both absent.

Structure (SMILES)	inhibition at 0.15 µM [%]
COc1cc(Nc2nc(N)c(-c3nc(-c4cccc(NC(=O)CCC5CCCC5)c4)cs3)s2)cc(OC)c1OC	85
COc1cc(Nc2nc(N)c(-c3nc(-c4cccc(NC(=O)c5ccc6c(c5)C(=O)c5ccccc5-6)c4)cs3)s2)cc(OC)c1OC	-4
C#CCCCC(=O)Nc1cccc(-c2csc(-c3sc(Nc4cc(OC)c(OC)c(OC)c4)nc3N)n2)c1	-14

Same assay, conditions: Homo sapiens, HUVEC, Table II screening results; 1 nM; crude combinatorial amide library

Structure (SMILES)	inhibition at 0.001 µM [%]
CNC(=O)Nc1nc(N)c(-c2nc(-c3cccc(NC(=O)c4cc(F)ccc4C)c3)cs2)s1	-1
CNC(=O)Nc1nc(N)c(-c2nc(-c3cccc(NC(=O)[C@@H]4CCC[C@@H]4O)c3)cs2)s1	15
CNC(=O)Nc1nc(N)c(-c2nc(-c3cccc(NC(=O)c4cc(OC)ccc4C#N)c3)cs2)s1	-18
CNC(=O)Nc1nc(N)c(-c2nc(-c3cccc(NC(=O)Cc4cccnc4)c3)cs2)s1	-7
CNC(=O)Nc1nc(N)c(-c2nc(-c3cccc(NC(=O)C4=CCCN(C)C4)c3)cs2)s1	2
CNC(=O)Nc1nc(N)c(-c2nc(-c3cccc(NC(=O)c4cc(C)nn4C)c3)cs2)s1	10
CNC(=O)Nc1nc(N)c(-c2nc(-c3cccc(NC(=O)C4CCCO4)c3)cs2)s1 (centres unmarked)	183
CNC(=O)Nc1nc(N)c(-c2nc(-c3cccc(NC(=O)c4cc(C)cc(=O)o4)c3)cs2)s1	5
CNC(=O)Nc1nc(N)c(-c2nc(-c3cccc(NC(=O)/C=C/C4C[C@H]5C=C[C@@H]4C5)c3)cs2)s1 (some centres unmarked)	11
CNC(=O)Nc1nc(N)c(-c2nc(-c3cccc(NC(=O)C4C[C@H]5C=C[C@@H]4C5)c3)cs2)s1 (some centres unmarked)	4

Same assay, conditions: Homo sapiens, HUVEC, Table II screening results; 10 nM; crude combinatorial amide library; read-out: % inhibition @ 10 nM

Structure (SMILES)	inhibition at 0.01 µM [%]
CNC(=O)Nc1nc(N)c(-c2nc(-c3cccc(NC(=O)c4cc(F)ccc4C)c3)cs2)s1	78
CNC(=O)Nc1nc(N)c(-c2nc(-c3cccc(NC(=O)[C@@H]4CCC[C@@H]4O)c3)cs2)s1	13
CNC(=O)Nc1nc(N)c(-c2nc(-c3cccc(NC(=O)c4cc(OC)ccc4C#N)c3)cs2)s1	-1
CNC(=O)Nc1nc(N)c(-c2nc(-c3cccc(NC(=O)Cc4cccnc4)c3)cs2)s1	-27
CNC(=O)Nc1nc(N)c(-c2nc(-c3cccc(NC(=O)C4=CCCN(C)C4)c3)cs2)s1	43
CNC(=O)Nc1nc(N)c(-c2nc(-c3cccc(NC(=O)c4cc(C)nn4C)c3)cs2)s1	39
CNC(=O)Nc1nc(N)c(-c2nc(-c3cccc(NC(=O)C4CCCO4)c3)cs2)s1 (centres unmarked)	-33
CNC(=O)Nc1nc(N)c(-c2nc(-c3cccc(NC(=O)c4cc(C)cc(=O)o4)c3)cs2)s1	62
CNC(=O)Nc1nc(N)c(-c2nc(-c3cccc(NC(=O)/C=C/C4C[C@H]5C=C[C@@H]4C5)c3)cs2)s1 (some centres unmarked)	50
CNC(=O)Nc1nc(N)c(-c2nc(-c3cccc(NC(=O)C4C[C@H]5C=C[C@@H]4C5)c3)cs2)s1 (some centres unmarked)	-18

Same assay, conditions: Homo sapiens, HUVEC, table following Table II (untitled); 1 nM; crude combinatorial library

Structure (SMILES)	inhibition at 0.001 µM [%]
COc1ccccc1/C=C/C(=O)Nc1ccc(C)c(-c2noc(-c3sc(Nc4cc(OC)c(OC)c(OC)c4)nc3N)n2)c1	13
CCC(C(=O)Nc1ccc(C)c(-c2noc(-c3sc(Nc4cc(OC)c(OC)c(OC)c4)nc3N)n2)c1)c1ccccc1C (centres unmarked)	-14
COc1cc(Nc2nc(N)c(-c3nc(-c4cc(NC(=O)[C@H]5CCC[C@H]5O)ccc4C)no3)s2)cc(OC)c1OC	45
COc1cc(Nc2nc(N)c(-c3nc(-c4cc(NC(=O)C5=C[C@@H](O)[C@@H](O)[C@H](O)C5)ccc4C)no3)s2)cc(OC)c1OC	4
COc1cc(Nc2nc(N)c(-c3nc(-c4cc(NC(=O)C5CNC(=O)N5)ccc4C)no3)s2)cc(OC)c1OC (centres unmarked)	-43
COc1cc(Nc2nc(N)c(-c3nc(-c4cc(NC(=O)C(O)c5ccccc5)ccc4C)no3)s2)cc(OC)c1OC (centres unmarked)	-1
CC/C=C(\C)C(=O)Nc1ccc(C)c(-c2noc(-c3sc(Nc4cc(OC)c(OC)c(OC)c4)nc3N)n2)c1	32
COc1cc(Nc2nc(N)c(-c3nc(-c4cc(NC(=O)CC(C)(C)NC(C)=O)ccc4C)no3)s2)cc(OC)c1OC	2
COc1cc(Nc2nc(N)c(-c3nc(-c4cc(NC(=O)[C@H]5CCCN5C(C)=O)ccc4C)no3)s2)cc(OC)c1OC	-44
COc1cc(Nc2nc(N)c(-c3nc(-c4cc(NC(=O)/C=C(\C)c5ccccc5C)ccc4C)no3)s2)cc(OC)c1OC	-27
COc1cc(Nc2nc(N)c(-c3nc(-c4cc(NC(=O)C5(c6ccc(C)cc6)CC5)ccc4C)no3)s2)cc(OC)c1OC	10

Same assay, conditions: Homo sapiens, HUVEC, table following Table II (untitled); 10 nM; crude combinatorial library; read-out: % inhibition @ 10 nM

Structure (SMILES)	inhibition at 0.01 µM [%]
COc1ccccc1/C=C/C(=O)Nc1ccc(C)c(-c2noc(-c3sc(Nc4cc(OC)c(OC)c(OC)c4)nc3N)n2)c1	31
CCC(C(=O)Nc1ccc(C)c(-c2noc(-c3sc(Nc4cc(OC)c(OC)c(OC)c4)nc3N)n2)c1)c1ccccc1C (centres unmarked)	13
COc1cc(Nc2nc(N)c(-c3nc(-c4cc(NC(=O)[C@H]5CCC[C@H]5O)ccc4C)no3)s2)cc(OC)c1OC	9
COc1cc(Nc2nc(N)c(-c3nc(-c4cc(NC(=O)C5=C[C@@H](O)[C@@H](O)[C@H](O)C5)ccc4C)no3)s2)cc(OC)c1OC	6
COc1cc(Nc2nc(N)c(-c3nc(-c4cc(NC(=O)C5CNC(=O)N5)ccc4C)no3)s2)cc(OC)c1OC (centres unmarked)	-7
COc1cc(Nc2nc(N)c(-c3nc(-c4cc(NC(=O)C(O)c5ccccc5)ccc4C)no3)s2)cc(OC)c1OC (centres unmarked)	40
CC/C=C(\C)C(=O)Nc1ccc(C)c(-c2noc(-c3sc(Nc4cc(OC)c(OC)c(OC)c4)nc3N)n2)c1	74
COc1cc(Nc2nc(N)c(-c3nc(-c4cc(NC(=O)CC(C)(C)NC(C)=O)ccc4C)no3)s2)cc(OC)c1OC	-11
COc1cc(Nc2nc(N)c(-c3nc(-c4cc(NC(=O)[C@H]5CCCN5C(C)=O)ccc4C)no3)s2)cc(OC)c1OC	-3
COc1cc(Nc2nc(N)c(-c3nc(-c4cc(NC(=O)/C=C(\C)c5ccccc5C)ccc4C)no3)s2)cc(OC)c1OC	8
COc1cc(Nc2nc(N)c(-c3nc(-c4cc(NC(=O)C5(c6ccc(C)cc6)CC5)ccc4C)no3)s2)cc(OC)c1OC	-8

Same assay, conditions: Table I screening results; 150 nM; crude combinatorial amide library

Structure (SMILES)	% inhibition @ 150 nM [%]
COc1cc(CCC(=O)Nc2cccc(-c3csc(-c4sc(Nc5cc(OC)c(OC)c(OC)c5)nc4N)n3)c2)cc(OC)c1OC	0

Same assay, conditions: Table I screening results; 150 nM; crude combinatorial amide library; 0.15 µM

Structure (SMILES)	% inhibition @ 150 nM [%]
COc1cc(Nc2nc(N)c(-c3nc(-c4cccc(NC(=O)c5ccc(C(C)C)cc5)c4)cs3)s2)cc(OC)c1OC [drawing 943]	6
